Calls of active or inactive are those of the source. No cut-off for these calls is given here.
Columns and labels:
[1] = target: T1, Cholecystokinin receptor type A (Cavia porcellus, UniProt Q63931); assay: Inhibitory activity towards binding of [125I]Bolton-Hunter-CCK-8 to CCKA receptor in guinea pig pancreatic tissue
T1 sequence (Q63931 whole entry): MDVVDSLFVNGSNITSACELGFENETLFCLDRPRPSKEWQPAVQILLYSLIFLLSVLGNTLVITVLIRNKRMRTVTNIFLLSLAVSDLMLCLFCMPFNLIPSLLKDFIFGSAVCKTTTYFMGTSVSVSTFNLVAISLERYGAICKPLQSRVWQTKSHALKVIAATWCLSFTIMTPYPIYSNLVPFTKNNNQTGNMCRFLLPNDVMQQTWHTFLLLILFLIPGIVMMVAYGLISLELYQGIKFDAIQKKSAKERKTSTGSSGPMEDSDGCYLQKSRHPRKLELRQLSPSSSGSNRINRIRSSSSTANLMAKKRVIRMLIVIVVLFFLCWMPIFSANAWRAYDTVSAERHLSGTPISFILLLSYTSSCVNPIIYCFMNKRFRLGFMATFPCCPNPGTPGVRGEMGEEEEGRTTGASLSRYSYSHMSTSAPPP

[2] = test system: Mus musculus; assay: In vivo anxiolytic activity in mouse upon ip administration; significant activity; type: functional, organism-based
[3] = test system: NCI-H345; assay: Ability to block CCK-8-induced calcium mobilization in NCI-H345 cells; type: functional, cell-based; details: Homo sapiens
[4] = test system: Mus musculus; assay: In vivo anxiolytic activity in mouse upon ip administration; less affinity and selectivity; type: functional, organism-based

Cc1cccc(NC(=O)N[C@H](CC(=O)OCc2ccccc2)C(=O)N2CCC(C(=O)c3ccccc3)CC2)c1 showed an IC50 [1] of 1300 nM.
CC(C)C[C@H](NC(=O)OC(C)(C)C)C(=O)N1CCC(C(=O)c2ccccc2)CC1 was tested, and the IC50 [1] was over 2100 nM.
Molecule Cc1cccc(NC(=O)N[C@H](COCc2ccccc2)C(=O)N2CCC(C(=O)c3ccccc3)CC2)c1 has an IC50 [1] of 2400 nM.
Cc1cccc(NC(=O)N[C@H](CCc2ccccc2)C(=O)N2CCC(C(=O)c3ccccc3)CC2)c1 gave an IC50 [1] of 2200 nM.
For Cc1cccc(NC(=O)N[C@H](CCC(=O)O)C(=O)N2CCC(C(=O)c3ccccc3)CC2)c1, the IC50 [1] was 1800 nM.
CC(C)C[C@H](NC(=O)[C@H](Cc1c[nH]c2ccccc12)NC(=O)OC(C)(C)C)C(=O)N1CCC(C(=O)c2ccccc2)CC1 was tested, and the IC50 [1] was 640 nM.
Molecule CC(C)(C)OC(=O)N[C@@H](Cc1c[nH]c2ccccc12)C(=O)N1CCC(C(=O)c2ccccc2)CC1 has an IC50 [1] of 4500 nM.
With CC1(C)C2CCC1(COC(=O)N[C@](C)(Cc1c[nH]c3ccccc13)C(=O)NC[C@@H](NC(=O)CCC(=O)O)c1ccccc1)CC2 the Activity [2] was “significant activity” and the IC50 [3] was 2 nM.
With Cc1cccc(NC(=O)N[C@@H](C(=O)N2CCC(C(=O)c3ccccc3)CC2)[C@@H](C)OCc2ccccc2)c1 the IC50 [1] was 1300 nM.
With Cc1cccc(NC(=O)N[C@H](CCC(=O)N2CCCC2)C(=O)N2CCC(C(=O)c3ccccc3)CC2)c1 the IC50 [1] was 1900 nM, the Activity [4] was “Weak activity” and the IC50 [3] was 251 nM.
Work on Cc1cccc(NC(=O)N[C@H](COC(=O)Nc2ccccc2)C(=O)N2CCC(C(=O)c3ccccc3)CC2)c1 yielded an IC50 [1] of 290 nM.
Cc1cccc(NC(=O)N[C@H](COC(=O)N2CCCC2)C(=O)N2CCC(C(=O)Nc3ccccc3)CC2)c1 was tested, and the IC50 [1] was 250 nM, the Activity [2] was “Active” and the IC50 [3] was 115 nM.
Cc1cccc(NC(=O)N[C@H](COC(=O)N(C)C)C(=O)N2CCC(C(=O)c3ccccc3)CC2)c1 gave an IC50 [1] of 1300 nM.
Cc1cccc(NC(=O)N[C@H](C[S+]([O-])Cc2ccccc2)C(=O)N2CCC(C(=O)c3ccccc3)CC2)c1 (stereo partly specified) showed an IC50 [1] of 800 nM.
For Cc1cccc(NC(=O)N[C@H](COC(=O)N2CCCC2)C(=O)N2CCC(C(=O)c3ccccc3)CC2)c1, the IC50 [1] was 1400 nM, the Activity [2] was “Active” and the IC50 [3] was 220 nM.
For Cc1cccc(NC(=O)N[C@H](CSCc2ccccc2)C(=O)N2CCC(C(=O)c3ccccc3)CC2)c1, the IC50 [1] was 1300 nM.
Molecule Cc1cccc(NC(=O)N[C@@H](CC(C)C)C(=O)N2CCC(C(=O)c3ccccc3)CC2)c1 has an IC50 [1] of 5200 nM.
Cc1cccc(NC(=O)N[C@H](CCC(=O)OCc2ccccc2)C(=O)N2CCN(C(=O)c3ccccc3)CC2)c1 gave an IC50 [1] of 1500 nM.
Cc1cccc(NC(=O)N[C@H](CCC(=O)OCc2ccccc2)C(=O)N2CCC(NC(=O)c3ccccc3)CC2)c1 gave an IC50 [1] of 970 nM.
For Cc1cccc(NC(=O)N[C@H](CS(=O)(=O)Cc2ccccc2)C(=O)N2CCC(C(=O)c3ccccc3)CC2)c1, the IC50 [1] was 1100 nM.
Work on CC(Cc1c[nH]c2ccccc12)(NC(=O)OC1[C@H]2C[C@@H]3C[C@@H](C[C@H]1C3)C2)C(=O)N1CCC(C(=O)c2ccccc2)CC1 (stereo partly specified) yielded an IC50 [1] of 1700 nM.
Cc1cccc(NC(=O)N[C@H](CCC(=O)OCc2ccccc2)C(=O)N2CCC(C(=O)c3ccccc3)CC2)c1 gave an IC50 [1] of 900 nM.
For CC(C)C[C@H](NC(=O)[C@H](Cc1c[nH]c2ccccc12)NC(=O)OC(C)(C)C)C(=O)N1CCC(Cc2ccccc2)CC1, the IC50 [1] was 200 nM.
With Cc1cccc(NC(=O)N[C@H](COCc2ccccc2)C(=O)N2CCC(C(=O)c3ccc(F)cc3)CC2)c1 the IC50 [1] was 420 nM.
Work on CCCC[C@@H](NC(=O)Nc1cccc(C)c1)C(=O)N1CCC(C(=O)c2ccccc2)CC1 yielded an IC50 [1] of 2500 nM.
For Cc1cccc(NC(=O)N[C@H](CCC(=O)OCc2ccccc2)C(=O)N2CCC(C(=O)Nc3ccccc3)CC2)c1, the IC50 [1] was 690 nM.
Cc1cccc(NC(=O)N[C@H](CC(C)C)C(=O)N2CCC(C(=O)c3ccccc3)CC2)c1 showed an IC50 [1] of 2000 nM.
Work on CC(=O)C1CCN(C(=O)[C@@H](COCc2ccccc2)NC(=O)Nc2cccc(C)c2)CC1 yielded an IC50 [1] of 1300 nM.
Cc1cccc(NC(=O)N[C@H](COC(=O)N2CCOCC2)C(=O)N2CCC(C(=O)c3ccccc3)CC2)c1 gave an IC50 [1] of 1500 nM.
Work on Cc1cccc(NC(=O)N[C@H](COCc2ccccc2)C(=O)N2CCC(C(=O)Nc3ccccc3)CC2)c1 yielded an IC50 [1] of 500 nM.
Work on Cc1cccc(NC(=O)N[C@H](COCc2ccccc2)C(=O)N2CCCC(C(=O)Nc3ccccc3)C2)c1 (stereo partly specified) yielded an IC50 [1] of 2200 nM.
With Cc1cccc(NC(=O)N[C@H](CCCc2ccccc2)C(=O)N2CCC(C(=O)c3ccccc3)CC2)c1 the IC50 [1] was 1800 nM.
With Cc1cccc(NC(=O)N[C@H](COCc2ccccc2)C(=O)N2CCC(Cc3ccccc3)CC2)c1 the IC50 [1] was 3400 nM.
For Cc1cccc(NC(=O)N[C@H](Cc2c[nH]c3ccccc23)C(=O)N2CCC(C(=O)c3ccccc3)CC2)c1, the IC50 [1] was 1400 nM.

— ChEMBL document CHEMBL1128107, “Amino acid-derived piperidides as novel CCKB ligands with anxiolytic-like properties” (Bioorg Med Chem Lett, 1995)
